Where “and” joins values, the source holds several entries; their conditions need not be identical. Equal entries are not always repeated.

Data on eight molecules can be found in patent US7531541B2, “Partial mGluR5 antagonists for treatment of anxiety and CNS disorders” (Vanderbilt University, priority 2005, dated 2009).

The target in experiment [1] is T1, rat mGluR5 (allosteric MPEP site) (Rattus norvegicus, UniProt P31424).
T1 construct: expressed in transfected cells
Kind of experiment: [3H]methoxyPEPy radioligand binding assay, membranes of HEK293A cells stably expressing rat mGluR5. The settings on record: for Ki: 2 nM [3H]methoxyPEPy, 60 min room temperature, rat mGluR5 HEK293A membranes, read-out: Ki, displacement of [3H]methoxyPEPy binding; for inhibition of binding of [3H]methoxyPEPy to mGluR5 membranes: extent of displacement, in words. The protocol: FIG. 3. […] Samples were filtered through glass fiber filters and washed extensively. […] Concentration response curves were generated from the means of three separate experiments. Error bars represent SEM.
Membranes were prepared from HEK293A cells stably expressing rat mGluR5. Compounds were diluted into assay buffer (50 mM Tris/0.9% NaCl, pH 7.4) to a 5× stock and 20 μL test compound added to each well of a 96 well assay plate. 60 μL aliquots of membranes diluted in assay buffer (10 μg/well) were added to each well. 20 μL [3H]methoxyPEPy (2 nM final concentration in assay buffer) was added and the reaction incubated at room temperature for 60 min with shaking. After the incubation period, the membrane-bound ligand was separated from free ligand by filtration through glass-fiber 96 well filter plates (Unifilter-96, GF/B by Perkin Elmer). The contents of each well was transferred simultaneously to the filter plate and washed 4 times with assay buffer (Brandel Cell Harvester). 30 μL scintillation fluid was added to each well and the membrane-bound radioactivity determined by scintillation counting (TopCount by Perkin-Elmer).
A general note: Displacement assays read how much labelled ligand stays bound in the presence of the test substance.

For experiment [2], the target named is T2, mGluR5 (Rattus norvegicus, UniProt P31424).
T2 construct: they provide a native system that endogenously expresses high levels of mGluR5; endogenous in cells; host or cells: primary (secondary-culture) rat cortical astrocytes from Sprague Dawley pups
In words: Calcium fluorescence assay (FDSS) in rat cortical astrocytes. The experiment is classed as cell-based. The note with it: for effect on glutamate concentration response curve: 10 μM (maximally effective) compound, range of glutamate concentrations; for effect on glutamate-induced calcium response: 10 μM compound, 5 min; for effect on glutamate-induced calcium response / maximal reduction of the response to glutamate / antagonist activity across a range of concentrations / IC50: nearly maximal glutamate; for maximal inhibition relative to that of MPEP: % of maximal inhibition by MPEP; for block of MPEP-induced inhibition of the glutamate response: compound added 1 min before; for rightward shift of concentration response curve compared to MPEP: antagonism of mGluR5-mediated calcium increase; for activation of mGluR5 when added alone: compound alone; for maximal reduction of the response to glutamate: concentration response; for IC50: read-out: IC50 at inhibiting mGluR5 receptor responses; for potentiation of response to suboptimal glutamate: DFB 30 μM, CDPPB 3 μM. The protocol:
Metabotropic glutamate receptor 5induced phosphorylation of extracellular signal-regulated kinase in astrocytes depends on transactivation of the epidermal growth factor receptor. J Neurosci 21:9619-28). In brief, neocortices from 2-4 day old Sprague Dawley rat pups were dissected and dissociated in DMEM by trituration with 1 ml pipette tips. The cells were then centrifuged and resuspended in DMEM (containing 1 mM sodium pyruvate, 2 mM L-glutamine, PenStrep) supplemented with 10% FBS in T75 tissue culture flasks; the medium was changed the next day. Cell cultures were maintained at 37° C. in an atmosphere of 95% air/5% CO2 for 6-8 days. Cells were shaken overnight (280-310 rpm) to remove oligodendrocytes and microglia.
Secondary astrocytes were trypsinzed and replated into poly-D-Lysine coated 384 well plates (Greiner) at 10K cells/well in 20 μL growth medium (DMEM containing 10% FBS, 20 mM HEPES, 2 mM L-glutamine and antibiotic/antimycotic). The second day the medium was changed to growth medium and G-5 supplement (Invitrogen) containing EGF (10 ng/ml), basic fibroblast growth factor (5 ng/ml), insulin (5 μg/ml), and other factors. The cells were nearly confluent within 2 days and resembled the polygonal astrocytic appearance in vivo. The fourth day, approximately 20 hours before experiments, the medium was changed to glutamine free DMEM containing 5% dialyzed FBS, 20 mM HEPES and antibiotic/antimycotic. On day five medium was removed from the plate and the cells incubated with 20 μL of 1 μM Fluo-4AM (Molecular Probes) in assay buffer (Hank's balanced salt solution, 20 mM HEPES and 2.5 mM Probenecid) for 1 h at 37° C. Dye was removed and 20 μL assay buffer was added. Ca2+ flux was measured using the Functional Drug Screening System (FDSS6000 by Hamamatsu).
Compounds were diluted into assay buffer to a 5× stock which was applied to the cells. For neutral measurements, cells were preincubated with the test compounds for 1 min, potentiator or antagonist was added, and the cells incubated for an additional 5 min. Cells were then stimulated for 2 min with an appropriate concentration of glutamate. For potentiator and antagonist measurements, cells were preincubated with the test compounds for 5 min and then stimulated for 2 min with an appropriate concentration of glutamate. Data were collected at ¼ Hz during the preincubation period and at 1 Hz during the glutamate addition phase of the experiment.
Raw data were normalized in a three step process: (1) Cell number and non-uniform illumination/imaging were controlled for based on the initial readings for the well, (2) the signal amplitude for the data point immediately preceding the agonist addition was subtracted from each point on the trace, (3) data were normalized to the maximal response for each experiment. Concentration response curves were generated using Prism 4.0 (GraphPad).

In experiment [3] the target is T3, mGluR5 (Homo sapiens, UniProt P41594).
T3 construct: host or cells: CHO cells transfected with mGluR5 (earlier work)
The note with it: recombinant CHO cells, Published US Application 2001/0056084; cited from earlier work.

Experiment [4] relates to mGluR5 receptor responses in STN neurons. Kind of experiment: Whole-cell electrophysiology in STN neurons of rat midbrain slices (DHPG-induced depolarization). Type of experiment: cell-based.
[5] abbreviates: 5MPEP 3, 10, 30 μM on MPEP concentration response.

T1 sequence (P31424 21-1203): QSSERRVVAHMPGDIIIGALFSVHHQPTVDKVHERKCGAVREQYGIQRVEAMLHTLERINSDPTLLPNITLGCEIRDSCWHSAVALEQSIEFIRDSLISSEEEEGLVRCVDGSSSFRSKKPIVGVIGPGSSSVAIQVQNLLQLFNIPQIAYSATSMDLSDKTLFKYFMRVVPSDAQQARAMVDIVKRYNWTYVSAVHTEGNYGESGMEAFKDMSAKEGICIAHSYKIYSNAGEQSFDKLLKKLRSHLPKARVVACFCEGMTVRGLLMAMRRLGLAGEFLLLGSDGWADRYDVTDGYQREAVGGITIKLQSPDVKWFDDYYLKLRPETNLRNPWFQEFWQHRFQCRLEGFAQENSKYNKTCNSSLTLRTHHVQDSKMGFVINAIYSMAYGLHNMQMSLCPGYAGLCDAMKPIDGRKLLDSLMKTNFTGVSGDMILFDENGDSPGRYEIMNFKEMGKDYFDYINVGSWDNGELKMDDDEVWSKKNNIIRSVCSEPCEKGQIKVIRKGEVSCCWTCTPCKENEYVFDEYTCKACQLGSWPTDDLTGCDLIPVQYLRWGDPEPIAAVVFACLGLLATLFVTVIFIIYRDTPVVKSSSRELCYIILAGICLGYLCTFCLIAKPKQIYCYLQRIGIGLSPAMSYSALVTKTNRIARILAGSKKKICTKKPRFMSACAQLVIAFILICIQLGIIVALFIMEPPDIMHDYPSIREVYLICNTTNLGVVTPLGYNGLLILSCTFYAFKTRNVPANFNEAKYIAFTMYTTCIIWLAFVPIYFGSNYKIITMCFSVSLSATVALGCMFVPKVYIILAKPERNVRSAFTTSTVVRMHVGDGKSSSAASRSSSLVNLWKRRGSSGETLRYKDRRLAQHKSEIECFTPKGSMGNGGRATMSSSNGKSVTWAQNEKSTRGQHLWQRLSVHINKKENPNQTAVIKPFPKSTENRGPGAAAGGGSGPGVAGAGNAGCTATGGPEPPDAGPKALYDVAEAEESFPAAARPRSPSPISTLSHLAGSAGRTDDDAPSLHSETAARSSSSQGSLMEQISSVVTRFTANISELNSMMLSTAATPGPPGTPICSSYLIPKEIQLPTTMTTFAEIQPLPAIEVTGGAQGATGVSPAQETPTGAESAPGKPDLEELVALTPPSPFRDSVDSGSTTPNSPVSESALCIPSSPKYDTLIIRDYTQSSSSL
T2 sequence (P31424 21-1203): as above
T3 sequence (P41594 21-1212): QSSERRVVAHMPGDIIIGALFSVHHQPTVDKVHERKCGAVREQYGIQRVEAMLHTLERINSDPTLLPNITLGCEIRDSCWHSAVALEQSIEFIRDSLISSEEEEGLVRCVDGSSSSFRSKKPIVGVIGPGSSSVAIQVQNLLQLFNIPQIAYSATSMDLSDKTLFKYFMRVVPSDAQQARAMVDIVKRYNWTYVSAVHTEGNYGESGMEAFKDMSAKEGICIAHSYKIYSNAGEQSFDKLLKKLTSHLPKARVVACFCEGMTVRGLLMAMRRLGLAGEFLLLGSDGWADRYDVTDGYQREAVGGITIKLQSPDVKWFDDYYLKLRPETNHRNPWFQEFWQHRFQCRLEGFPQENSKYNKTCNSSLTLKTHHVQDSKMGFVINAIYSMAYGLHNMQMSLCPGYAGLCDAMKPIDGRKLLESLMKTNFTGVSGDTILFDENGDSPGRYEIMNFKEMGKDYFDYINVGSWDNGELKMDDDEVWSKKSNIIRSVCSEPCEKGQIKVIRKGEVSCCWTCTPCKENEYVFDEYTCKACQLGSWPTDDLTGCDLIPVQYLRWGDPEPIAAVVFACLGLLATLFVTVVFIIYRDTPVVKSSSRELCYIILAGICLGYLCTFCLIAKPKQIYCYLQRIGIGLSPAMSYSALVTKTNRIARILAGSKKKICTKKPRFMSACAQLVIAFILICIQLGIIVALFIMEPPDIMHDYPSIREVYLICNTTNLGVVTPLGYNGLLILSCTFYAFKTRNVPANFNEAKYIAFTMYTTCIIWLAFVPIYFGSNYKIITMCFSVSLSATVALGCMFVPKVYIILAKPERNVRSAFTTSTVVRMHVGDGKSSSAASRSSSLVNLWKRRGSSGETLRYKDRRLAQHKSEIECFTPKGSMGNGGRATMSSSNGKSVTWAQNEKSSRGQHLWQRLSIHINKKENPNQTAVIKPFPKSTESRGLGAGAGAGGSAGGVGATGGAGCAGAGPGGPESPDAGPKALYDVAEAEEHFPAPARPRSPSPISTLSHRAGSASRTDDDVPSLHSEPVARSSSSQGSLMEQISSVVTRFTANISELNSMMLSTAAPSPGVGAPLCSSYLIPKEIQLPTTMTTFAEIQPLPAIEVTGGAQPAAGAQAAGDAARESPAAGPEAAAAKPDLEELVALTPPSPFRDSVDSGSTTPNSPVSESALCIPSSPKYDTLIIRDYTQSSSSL

The Ki is a dissociation constant, usually derived from enzyme kinetics or from competition with a known ligand. Usually IC50 stands for the point on the concentration scale where inhibition reaches its midpoint. On to “3-(6-Methylpyridin-2-ylethynyl)-5-bromopyridine [Br-5MPEPy]”, for which, in experiment [1], the Ki is 182 ± 50 nM and the “inhibition of binding of [3H]methoxyPEPy to mGluR5 membranes” value was “fully inhibited”. On mGluR5 [2], the “effect on glutamate concentration response curve” value is “rightward and partial downward shift”; the “effect on glutamate-induced calcium response” value is on record as “partially inhibited”; the “maximal inhibition relative to that of MPEP” value was “approximately 50%”; the “rightward shift of concentration response curve compared to MPEP” value is “approximately 10 fold”. In addition, at mGluR5 [2], the “activation of mGluR5 when added alone” value is given as “do not partially activate”, the “maximal reduction of the response to glutamate” value is reported as “approximately 50%”, the “antagonist activity across a range of concentrations” value is listed as “partial antagonist activity” and the IC50 is around 300 nM. Also, on mGluR5 [2] (MPEP 50 nM), the “block of MPEP-induced inhibition of the glutamate response” value is listed as “only partially blocked”.

For `Cc1ccc(C#Cc2ccccc2)nc1` [5MPEP, 5-methyl-2-phenylethynyl-pyridine, reference compound], at mGluR5 [2], the “effect on glutamate-induced calcium response” value is on record as “no inhibitory effect”. Moreover, the “effect on mGluR5 response to glutamate alone” value at mGluR5 [2] (5MPEP 30 μM, suboptimal glutamate) is “does not alter”. The “block of allosteric potentiator responses to DFB and CDPPB” value on mGluR5 [2] (5MPEP 30 μM, DFB 30 μM or CDPPB 3 μM, suboptimal glutamate) is on record as “completely blocks”. Moreover, at mGluR5 [2] (setting [5]), the “Schild regression slope, 5MPEP versus MPEP” value was 1.076±0.0094 and 1.076±0.01; the Schild x-intercept is on record as −6.249. In addition, at mGluR5 [2] (MPEP 50 nM), the “block of MPEP-induced inhibition of the glutamate response” value is “fully blocked”. Also, the Ki at mGluR5 [2] (extrapolated from Schild regression, read-out: Ki from Schild analysis (x-intercept)) is 560 nM. At mGluR5 [3], the “inhibition of mGluR5 receptor responses” value is “completely inactive”. In experiment [4], the “DHPG-induced depolarization in presence of CDPPB and 5MPEP” value amounted to 7.05±0.82 mV; the “DHPG-induced depolarization in presence of MPEP and 5MPEP” value was found to be 14.28±2.1 mV; the “effect on membrane potential of STN neurons” value is on record as “no effect”.

Take `N#Cc1cccc(C(=O)Nc2cc(-c3ccccc3)nn2-c2ccccc2)c1` [CDPPB, 3-cyano-N-(I,3-diphenyl-1 H-pyrazol-5-yl)benzamide, reference compound]: on mGluR5 [2], the “potentiation of response to suboptimal glutamate” value was “potentiated”. Further, the “DHPG-induced depolarization in presence of CDPPB” value in experiment [4] (DHPG 10 μM + CDPPB 10 μM) is given as 13.39±1.66 mV.

`Fc1cccc(C=NN=Cc2cccc(F)c2)c1` [DFB, 3,3′-di fluorobenzaldazine, reference compound]: the “potentiation of response to suboptimal glutamate” value on mGluR5 [2] is “potentiated”.

With `N[C@H](C(=O)O)c1cc(O)cc(O)c1` [DHPG], the “depolarization of STN neurons” value in experiment [4] (DHPG 10 μM alone (submaximal)) was 6.89 ± 1.22 mV; in experiment [4] (DHPG 100 μM alone, TTX 500 nM), 14.82 ± 2.21 mV.

`COc1cccc(C#Cc2ccc(C)cn2)c1` [M-5MPEP, 2-(3-Methoxyphenylethynyl)-5-methylpyridine]: in experiment [1], the Ki is 145 nM and the “inhibition of binding of [3H]methoxyPEPy to mGluR5 membranes” value is recorded as “fully inhibited”. Besides, on mGluR5 [2], the “effect on glutamate concentration response curve” value was “rightward and partial downward shift”; the “effect on glutamate-induced calcium response” value is listed as “partially inhibited”; the “maximal inhibition relative to that of MPEP” value was “approximately 50%”; the “rightward shift of concentration response curve compared to MPEP” value is listed as “approximately 10 fold”. At mGluR5 [2], the “activation of mGluR5 when added alone” value was “do not partially activate”, the “maximal reduction of the response to glutamate” value is “approximately 50%”, the “antagonist activity across a range of concentrations” value is listed as “partial antagonist activity” and the concentration for half-maximal inhibition (IC50) was around 300 nM. For the same molecule, the “block of MPEP-induced inhibition of the glutamate response” value on mGluR5 [2] (MPEP 50 nM) is reported as “only partially blocked”.

For `Cc1cccc(C#Cc2ccccc2)n1` [MPEP, 2-methyl-6-(phenylethynyl)-pyridine, reference compound], on mGluR5 [2], the “effect on glutamate-induced calcium response” value was “fully blocked”. Moreover, at mGluR5 [2] (MPEP 50 nM), the “inhibition of calcium response to nearly maximal glutamate” value is “robust inhibition”. In addition, the “DHPG-induced depolarization in presence of MPEP” value in experiment [4] (DHPG 100 μM + MPEP 10 μM) is recorded as 6.15+0.82 mV.

In the case of `Brc1ccc(C#Cc2ccccc2)nc1.Cl` [YP260], the “partial antagonist activity (FIG. 11)” value at mGluR5 [2] (similarly to the figures above) is recorded as “partial activities”.
